From ChEMBL document CHEMBL1201862, “PubChem BioAssay data set” (2004) come the findings set out here.

Among the test systems are ACHN; HOP-92; Hs-578T; MDA-MB-435; 786-0; RPMI-8226; CAKI-1; IGROV-1; MOLT-4; TK-10; SR; COLO 205; CCRF-CEM; SK-MEL-2; U-251; SK-OV-3; SN12C; PC-3; NCI-H226; SK-MEL-28.
What all share (experiment): growth of human tumour cells (NCI), 48 h

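Compound exposure: 48 hours, 5 concentrations, 96-well plates. At the GI50, growth is halved.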 Active and inactive are the calls of the source. Cut-off read from the data, not from the text of the source: active = GI50 up to about 1.1 µM and inactive = higher. A value given as a limit tells only on which side of the number the result lay.

For `CCN(CC)CCCC(C)Nc1ccnc2cc3ccccc3cc12` (stereo not given), the GI50 in the experiment with ACHN is 3.72 µM (inactive); with HOP-92, 12.3 µM (inactive); in the experiment with Hs-578T it was 36.5 µM (inactive); in the experiment on MDA-MB-435, 7.85 µM (inactive); with 786-0, 8.41 µM (inactive); with RPMI-8226, 13.5 µM (inactive). Besides, the GI50 in the experiment on CAKI-1 was 9.2 µM (inactive); with IGROV-1, 4.43 µM (inactive); in the experiment with MOLT-4 it was 4.09 µM (inactive); with TK-10 it was 10.2 µM (inactive); in the experiment with SR, 3.75 µM (inactive); in the experiment on COLO 205 it was 3.3 µM (inactive). The GI50 in the experiment with CCRF-CEM was > 100 µM (inactive); in the experiment on SK-MEL-2, 23.9 µM (inactive); in the experiment on U-251, 5.75 µM (inactive); with SK-OV-3, 8.05 µM (inactive); in the experiment on SN12C, 14.2 µM (inactive); with PC-3, 12.9 µM (inactive). The GI50 in the experiment on NCI-H226 was 20.9 µM (inactive).

As for `O=C(Nc1nc(C23CC4CC(CC(C4)C2)C3)cs1)c1cc2c(ccc3ccccc32)oc1=O`, the GI50 in the experiment with ACHN, in the experiment with HOP-92, in the experiment on Hs-578T, in the experiment on MDA-MB-435, with 786-0 and in the experiment on RPMI-8226 was > 100 µM (inactive) each time. In addition, the GI50 in the experiment with CAKI-1, with IGROV-1, with MOLT-4, with TK-10, in the experiment with SR and in the experiment on COLO 205 was > 100 µM (inactive) each time. Also, the GI50 with CCRF-CEM, with U-251, in the experiment with SN12C, with PC-3, in the experiment on NCI-H226 and in the experiment on SK-MEL-28 was > 100 µM (inactive) each time.

In the case of `O=C1C(/N=N/c2ccc(-c3nc4ccccc4o3)cc2)NC(=S)N1c1ccccc1` (stereo not given), the GI50 in the experiment with ACHN is > 100 µM (inactive); in the experiment on HOP-92, 59.6 µM (inactive); with Hs-578T, > 100 µM (inactive); with MDA-MB-435 it was 60.7 µM (inactive); in the experiment with 786-0 it was > 100 µM (inactive); with CAKI-1, 90.8 µM (inactive). Further, the GI50 was 57.3 µM (inactive) in the experiment with IGROV-1; 34.7 µM (inactive) with MOLT-4; 70 µM (inactive) in the experiment on TK-10; 28.5 µM (inactive) in the experiment on SR; > 100 µM (inactive) in the experiment on COLO 205; 0.0479 µM (active) in the experiment on CCRF-CEM. The GI50 with SK-MEL-2 was > 100 µM (inactive); in the experiment with U-251 it was > 100 µM (inactive); in the experiment with SK-OV-3 it was > 100 µM (inactive); in the experiment with SN12C, 0.692 µM (active); in the experiment with PC-3 it was > 100 µM (inactive); in the experiment with NCI-H226, > 100 µM (inactive). Further, the GI50 in the experiment on SK-MEL-28 is > 100 µM (inactive).

Turning to `CCOC(=O)c1csc(C(CSCc2ccc(OC)cc2)N2C(=O)c3ccccc3C2=O)n1` (stereo not given), the GI50 was > 100 µM (inactive) in the experiment with ACHN; > 100 µM (inactive) in the experiment on HOP-92; > 100 µM (inactive) in the experiment with Hs-578T; 54.8 µM (inactive) in the experiment on MDA-MB-435; 88.1 µM (inactive) in the experiment with 786-0; 38 µM (inactive) in the experiment on RPMI-8226. Besides, the GI50 with CAKI-1 is > 100 µM (inactive); with IGROV-1, > 100 µM (inactive); with MOLT-4, 31.5 µM (inactive); in the experiment with TK-10, > 100 µM (inactive); with SR, 26.5 µM (inactive); with COLO 205 it was > 100 µM (inactive). The GI50 with CCRF-CEM is 35.9 µM (inactive); in the experiment on U-251, > 100 µM (inactive); with SK-OV-3, > 100 µM (inactive); with SN12C, > 100 µM (inactive); in the experiment on PC-3, > 100 µM (inactive); with NCI-H226 it was > 100 µM (inactive). The GI50 with SK-MEL-28 is > 100 µM (inactive).

As to `CC[N+]1(C)CCC(O)(c2ccc(C)cc2)C(C(=O)c2ccc(C)cc2)C1` (stereo not given), the GI50 was 23.3 µM (inactive) with ACHN; 23 µM (inactive) in the experiment on HOP-92; > 100 µM (inactive) in the experiment with Hs-578T; 69.2 µM (inactive) in the experiment with MDA-MB-435; 20.1 µM (inactive) in the experiment with 786-0; 10.9 µM (inactive) in the experiment on RPMI-8226. In addition, the GI50 was 23.9 µM (inactive) with CAKI-1; > 100 µM (inactive) in the experiment with IGROV-1; 23.6 µM (inactive) with MOLT-4; 20.2 µM (inactive) with TK-10; 16.2 µM (inactive) in the experiment with SR; 25.5 µM (inactive) in the experiment on COLO 205. The GI50 with CCRF-CEM was 22 µM (inactive); in the experiment with SK-MEL-2, > 100 µM (inactive); in the experiment with U-251 it was > 100 µM (inactive); in the experiment with SK-OV-3, > 100 µM (inactive); in the experiment with SN12C it was > 100 µM (inactive); in the experiment with PC-3, > 100 µM (inactive). In the experiment on NCI-H226, the GI50 is > 100 µM (inactive).

Consider `CCN(C(C)=O)c1cnc(/C=N/NC(N)=S)c2ccccc12`, for which the GI50 in the experiment with ACHN was 1.76 µM (inactive); in the experiment with HOP-92, > 40.4 µM (inactive); in the experiment with Hs-578T it was 80.5 µM (inactive); in the experiment with MDA-MB-435, 4.42 µM (inactive); with 786-0, 1.61 µM (inactive); in the experiment on RPMI-8226 it was 3.08 µM (inactive). In addition, the GI50 in the experiment on CAKI-1 is 3.3 µM (inactive); in the experiment with IGROV-1, 2.76 µM (inactive); in the experiment on MOLT-4, 1.96 µM (inactive); with TK-10, 4.59 µM (inactive); with SR, 0.631 µM (active); in the experiment on COLO 205, 4.83 µM (inactive). For the same compound, the GI50 with CCRF-CEM was 2.54 µM (inactive); with U-251, 3.85 µM (inactive); in the experiment on SK-OV-3, 3.65 µM (inactive); in the experiment with SN12C it was 3.21 µM (inactive); in the experiment on PC-3 it was 4.15 µM (inactive); with NCI-H226 it was 3.44 µM (inactive).

Regarding `N#C/C(=C/n1c(=S)[nH]c2ccccc21)C(N)=O`, the GI50 in the experiment on ACHN was > 100 µM (inactive); in the experiment with HOP-92 it was 11 µM (inactive); in the experiment with Hs-578T it was > 100 µM (inactive); in the experiment on MDA-MB-435, > 100 µM (inactive); in the experiment on 786-0 it was > 100 µM (inactive); in the experiment with RPMI-8226, > 100 µM (inactive). Besides, the GI50 in the experiment on CAKI-1, in the experiment on IGROV-1, with MOLT-4, with SR, with COLO 205 and in the experiment with CCRF-CEM was > 100 µM (inactive) each time. For the same compound, the GI50 in the experiment with SK-MEL-2, in the experiment on U-251, with SK-OV-3, in the experiment with SN12C, in the experiment on PC-3 and with NCI-H226 was > 100 µM (inactive) in each case. Further, the GI50 in the experiment on SK-MEL-28 was > 100 µM (inactive).

As for `COC(=O)/C=C(/OC)[C@H](C)[C@H](/C=C/c1csc(-c2csc(C(C)C)n2)n1)OC`, the GI50 in the experiment with ACHN was 0.124 µM (active); with HOP-92 it was 6.07 µM (inactive); with Hs-578T, > 57.8 µM (inactive); in the experiment with MDA-MB-435, 0.925 µM (active); in the experiment on 786-0, 7.45 µM (inactive); with RPMI-8226, 0.373 µM (active). The GI50 with CAKI-1 was 7.08 µM (inactive); with IGROV-1, 0.426 µM (active); in the experiment with MOLT-4, 0.0703 µM (active); in the experiment on SR it was 0.0929 µM (active); in the experiment on COLO 205, 3.38 µM (inactive); in the experiment with CCRF-CEM it was 18.2 µM (inactive). Moreover, the GI50 in the experiment on SK-MEL-2 was 28 µM (inactive); with U-251, 0.149 µM (active); in the experiment on SK-OV-3, > 62.1 µM (inactive); in the experiment on SN12C, 10.3 µM (inactive); in the experiment with PC-3, 0.126 µM (active); in the experiment with NCI-H226, 4.19 µM (inactive). In addition, in the experiment with SK-MEL-28, the GI50 is 63.5 µM (inactive).

For `N#Cc1c(N)nc(-c2ccc(Cl)cc2)c2c1-c1ccccc1S(=O)(=O)CC2`, the GI50 is > 100 µM (inactive) in the experiment with ACHN; > 100 µM (inactive) in the experiment with HOP-92; 46.1 µM (inactive) with Hs-578T; > 100 µM (inactive) in the experiment on MDA-MB-435; 27.2 µM (inactive) with 786-0; > 100 µM (inactive) with RPMI-8226. Moreover, the GI50 is > 100 µM (inactive) in the experiment on CAKI-1; > 100 µM (inactive) with IGROV-1; > 100 µM (inactive) in the experiment with TK-10; 56.4 µM (inactive) with SR; > 100 µM (inactive) in the experiment on COLO 205; > 100 µM (inactive) with SK-MEL-2. Besides, the GI50 in the experiment on U-251 is 37.3 µM (inactive); in the experiment with SN12C, 53.7 µM (inactive); in the experiment on PC-3, > 100 µM (inactive); in the experiment on NCI-H226, > 100 µM (inactive); in the experiment on SK-MEL-28 it was > 100 µM (inactive).

In the case of `CCOP(=O)(OCC)/C(C#N)=C/c1c(C)[nH]c2ccccc12`, the GI50 with ACHN, in the experiment with HOP-92, in the experiment with Hs-578T, in the experiment on MDA-MB-435, with 786-0 and in the experiment on RPMI-8226 was > 100 µM (inactive) in each case. Also, the GI50 with CAKI-1, with IGROV-1, in the experiment on MOLT-4, in the experiment with TK-10, in the experiment on SR and with COLO 205 was > 100 µM (inactive) in each case. Moreover, the GI50 in the experiment on CCRF-CEM, in the experiment with U-251, in the experiment on SK-OV-3, with SN12C, in the experiment with PC-3 and with NCI-H226 was > 100 µM (inactive) in each case. Also, the GI50 in the experiment on SK-MEL-28 is > 100 µM (inactive).

Turning to `C=C1C(=O)O[C@H]2C(=O)[C@H](C)CCC/C(C)=C/CC[C@@]3(C)O[C@@H]3C[C@@H]12`, the GI50 was 1.34 µM (inactive) in the experiment with ACHN; 1 µM (active) in the experiment on HOP-92; 6.34 µM (inactive) in the experiment with Hs-578T; 1.98 µM (inactive) with MDA-MB-435; 1.62 µM (inactive) with 786-0; 2.25 µM (inactive) in the experiment on RPMI-8226. Besides, the GI50 is 1.67 µM (inactive) in the experiment on CAKI-1; 2.76 µM (inactive) with IGROV-1; 1.61 µM (inactive) with MOLT-4; 0.135 µM (active) with TK-10; 2.45 µM (inactive) in the experiment on SR; 1.58 µM (inactive) in the experiment on COLO 205. The GI50 in the experiment on CCRF-CEM is 1.18 µM (inactive); in the experiment with SK-MEL-2, 5.26 µM (inactive); in the experiment with U-251, 2.67 µM (inactive); in the experiment with SK-OV-3, 16.4 µM (inactive); in the experiment with SN12C, 5.53 µM (inactive); in the experiment with PC-3 it was 6.76 µM (inactive). The GI50 with NCI-H226 was 17.7 µM (inactive).
